Data reported in patent publication US8933016B2, “Metallodrugs having improved pharmacological properties and methods of manufacture and use thereof” (priority 2012, dated 2015).
Converted amounts (≈) assume the structure as drawn. Ends that are not written are not given here. Peptide text beside a SMILES is read from it. * marks the point of attachment. X4 = COCCOCCOCCOCCOCCOCCOCCOCCOCCOCCOCCOCCOCCOCCOCCOCCOCCOCCOCCOCCOCCOCCOCCOCCOCCOCCOCCOCCOCCOCCOCCOCCOCCOCCOCCOCCOCCOCCOCCOCCOCCOCCOCCOCCOCCOCCOCCOCCNC(=O)CCN1C(=O)CC(*)C1=O; X3 = COCCOCCOCCOCCOCCOCCOCCOCCOCCOCCOCCOCCOCCOCCOCCOCCOCCOCCOCCOCCOCCOCCOCCOCCOCCOCCOCCOCCOCCOCCOCCOCCOCCOCCOCCOCCNC(=O)CCN1C(=O)CC(*)C1=O; X2 = COCCOCCOCCOCCOCCOCCOCCOCCOCCOCCOCCOCCOCCOCCOCCOCCOCCOCCOCCOCCOCCOCCOCCOCCNC(=O)CCN1C(=O)CC(*)C1=O; X1 = COCCOCCOCCOCCOCCOCCOCCOCCOCCOCCOCCOCCNC(=O)CCN1C(=O)CC(*)C1=O

Key:
[1] = system: pUC19 plasmid DNA; assay: Plasmid DNA cleavage by reactive oxygen species; format: biochemical; conditions: 10 μM base pair pUC19, 100 nM M-chelate, 1 mM H2O2, 1 mM ascorbate, pH 7.4
[2] = system: E. coli O157:H7, BAA-1883 (Ec F); conditions: O157:H7
[3] = system: K. pneumonia, 700603 (Kp); format: cell-based; conditions: Mueller Hinton Broth
[4] = system: S. pneumoniae, 49619 (Sp); conditions: 49619 (Sp)
[5] = system: E. coli, 25922 (Ec); conditions: 25922 (Ec)
[6] = system: A. baumanii, BAA-747 (Ab); conditions: BAA-747
[7] = Cytotoxicity toward human Huh7 liver cells
[8] = system: Gram+ & Gram−, Fungi, Virus, Parasites, Protozoan, HIV, Cancer cells; conditions: Antimicrobial Peptide Database; cited from earlier work

**Q.** Which “Linear (μM bp)” value [1] does the source give for O=C([O-])CN1CCN(CC(=O)O)CCN(CC(=O)[O-])CCN(CC(=O)O)CC1.[Cu+2] [Cu-DOTA] here?
**A.** 0.09 μM bp

**Q.** And the “Nicked (μM bp)” value [1]?
**A.** 1.31 μM bp

**Q.** What about the “Supercoiled (μM bp)” value [1] of the same molecule?
**A.** 8.59 μM bp

**Q.** What does the source list for O=C([O-])CN(CCN(CC(=O)[O-])CC(=O)[O-])CC(=O)[O-].[Fe+3] [Fe-EDTA]?
**A.** Linear (μM bp) [1]: 0.30 μM bp; Nicked (μM bp) [1]: 2.44 μM bp; Supercoiled (μM bp) [1]: 7.26 μM bp

**Q.** For NCC(=O)NCC(=O)N[C@@H](Cc1c[nH]cn1)C(=O)N1CCN(c2cc3c(cc2F)c(=O)c(C(=O)O)cn3C2CC2)CC1 [GGH CIPRO], which “MIC Ec F” value [2] is on record?
**A.** 8 µM (≈ 4.66 µg/mL)

**Q.** With CC(C)C[C@H](NC(=O)[C@H](CCCNC(=N)N)NC(=O)[C@H](CCC(N)=O)NC(=O)[C@H](CCCCN)NC(=O)[C@@H](NC(=O)[C@H](CCCCN)NC(=O)[C@H](CCCNC(=N)N)NC(=O)[C@H](CC(C)C)NC(=O)[C@H](CC(N)=O)NC(=O)[C@H](Cc1ccccc1)NC(=O)[C@H](Cc1ccccc1)NC(=O)[C@H](CC(C)C)NC(=O)[C@H](CCCCN)NC(=O)[C@H](CCCNC(=N)N)NC(=O)[C@H](CCC(N)=O)NC(=O)CNC(=O)[C@H](Cc1c[nH]cn1)NC(=O)CNC(=O)CN)[C@@H](C)O)C(=O)NCC(=O)N[C@@H](Cc1c[nH]c2ccccc12)C(=O)N[C@@H](Cc1ccccc1)C(=O)N[C@@H](CC(N)=O)C(=O)N[C@@H](CCC(N)=O)C(=O)N[C@@H](CS)C(=O)O [PEP 192] as the molecule, how does the “MIC Kp” value [3] read?
**A.** 5.3 µM (≈ 16 µg/mL)

**Q.** Which “MIC Sp” value [4] does the source give for CC[C@H](C)[C@H](NC(=O)[C@H](CCCCN)NC(=O)[C@H](Cc1c[nH]c2ccccc12)NC(=O)[C@H](CCCNC(=N)N)NC(=O)[C@H](CCCNC(=N)N)NC(=O)[C@H](Cc1c[nH]cn1)NC(=O)CNC(=O)CN)C(=O)N[C@H](C(=O)N[C@H](C(=O)N[C@H](C(=O)N[C@@H](CCCNC(=N)N)C(=O)N[C@@H](Cc1c[nH]c2ccccc12)C(=O)N[C@@H](CCCNC(=N)N)C(=O)N[C@@H](CCCNC(=N)N)C(=O)NCC(=O)NCC(=O)N[C@@H](CSC1CC(=O)N(CCC(=O)NCCOCCOCCOCCOCCOCCOCCOCCOCCOCCOCCOCCOC)C1=O)C(=O)O)[C@@H](C)CC)C(C)C)C(C)C (some centres unmarked) [PEP 314 PEG 12] (H-GGHRRWKIVVIRWRRGGC(X1)-OH; C-terminus assumed) here?
**A.** 11 µM (≈ 31.9 µg/mL)

**Q.** And the “MIC Ec” value [5]?
**A.** 11 µM (≈ 31.9 µg/mL)

**Q.** What about the “MIC Ec F” value [2] of the same molecule?
**A.** 11 µM (≈ 31.9 µg/mL)

**Q.** And the “MIC Ab” value [6]?
**A.** 2.7 µM (≈ 7.84 µg/mL)

**Q.** Which results are given for CC[C@H](C)[C@H](NC(=O)[C@H](CCCCN)NC(=O)[C@H](Cc1c[nH]c2ccccc12)NC(=O)[C@H](CCCNC(=N)N)NC(=O)[C@H](CCCNC(=N)N)NC(=O)[C@H](Cc1c[nH]cn1)NC(=O)CNC(=O)CN)C(=O)N[C@H](C(=O)N[C@H](C(=O)N[C@H](C(=O)N[C@@H](CCCNC(=N)N)C(=O)N[C@@H](Cc1c[nH]c2ccccc12)C(=O)N[C@@H](CCCNC(=N)N)C(=O)N[C@@H](CCCNC(=N)N)C(=O)NCC(=O)NCC(=O)N[C@@H](CSC1CC(=O)N(CCC(=O)NCCOCCOCCOCCOCCOCCOCCOCCOCCOCCOCCOCCOCCOCCOCCOCCOCCOCCOCCOCCOCCOCCOCCOCCOCCOCCOCCOCCOCCOCCOCCOCCOCCOCCOCCOCCOC)C1=O)C(=O)O)[C@@H](C)CC)C(C)C)C(C)C (some centres unmarked) [PEP 314 PEG 36] (H-GGHRRWKIVVIRWRRGGC(X3)-OH; C-terminus assumed)?
**A.** MIC Sp [4]: 8.1 µM (≈ 32.1 µg/mL); IC50 [7]: > 200 µM

**Q.** With CC[C@H](C)[C@H](NC(=O)[C@H](CCCCN)NC(=O)[C@H](Cc1c[nH]c2ccccc12)NC(=O)[C@H](CCCNC(=N)N)NC(=O)[C@H](CCCNC(=N)N)NC(=O)[C@H](Cc1c[nH]cn1)NC(=O)CNC(=O)CN)C(=O)N[C@H](C(=O)N[C@H](C(=O)N[C@H](C(=O)N[C@@H](CCCNC(=N)N)C(=O)N[C@@H](Cc1c[nH]c2ccccc12)C(=O)N[C@@H](CCCNC(=N)N)C(=O)N[C@@H](CCCNC(=N)N)C(=O)NCC(=O)NCC(=O)N[C@@H](CSC1CC(=O)N(CCC(=O)NCCOCCOCCOCCOCCOCCOCCOCCOCCOCCOCCOCCOCCOCCOCCOCCOCCOCCOCCOCCOCCOCCOCCOCCOCCOCCOCCOCCOCCOCCOCCOCCOCCOCCOCCOCCOCCOCCOCCOCCOCCOCCOCCOCCOCCOCCOCCOCCOC)C1=O)C(=O)O)[C@@H](C)CC)C(C)C)C(C)C (some centres unmarked) [PEP 314 PEG 48] (H-GGHRRWKIVVIRWRRGGC(X4)-OH; C-terminus assumed) as the molecule, how does the “MIC Sp” value [4] read?
**A.** 7.1 µM (≈ 31.9 µg/mL)

**Q.** What about the IC50 [7] of the same molecule?
**A.** > 200 µM

**Q.** For CC[C@H](C)[C@H](NC(=O)[C@H](Cc1c[nH]cn1)NC(=O)CNC(=O)CN)C(=O)N[C@@H](CCCNC(=N)N)C(=O)N[C@@H](CCCNC(=N)N)C(=O)N[C@H](C(=O)N[C@H](C(=O)N[C@@H](CCCNC(=N)N)C(=O)N[C@@H](CCCCN)C(=O)N[C@H](C(=O)N[C@H](C(=O)N[C@@H](Cc1c[nH]cn1)C(=O)N[C@H](C(=O)N[C@H](C(=O)N[C@@H](CCCCN)C(=O)N[C@@H](CCCCN)C(=O)NCC(=O)NCC(=O)N[C@@H](CSC1CC(=O)N(CCC(=O)NCCOCCOCCOCCOCCOCCOCCOCCOCCOCCOCCOCCOCCOCCOCCOCCOCCOCCOCCOCCOCCOCCOCCOCCOC)C1=O)C(=O)O)[C@@H](C)CC)[C@@H](C)CC)[C@@H](C)CC)[C@@H](C)CC)[C@@H](C)CC)[C@@H](C)CC (some centres unmarked) [PEP 318 PEG 24] (H-GGHIRRIIRKIIHIIKKGGC(X2)-OH; C-terminus assumed), which “MIC Ec” value [5] is on record?
**A.** 9.1 µM (≈ 31.9 µg/mL)

**Q.** And the “MIC Ec F” value [2]?
**A.** 18.2 µM (≈ 63.9 µg/mL)

**Q.** What about the “MIC Ab” value [6] of the same molecule?
**A.** 9.1 µM (≈ 31.9 µg/mL)

**Q.** What about the IC50 [7] of the same molecule?
**A.** > 200 µM

**Q.** For CC[C@H](C)[C@H](NC(=O)[C@H](Cc1c[nH]cn1)NC(=O)CNC(=O)CN)C(=O)N[C@@H](CCCNC(=N)N)C(=O)N[C@@H](CCCNC(=N)N)C(=O)N[C@H](C(=O)N[C@H](C(=O)N[C@@H](CCCNC(=N)N)C(=O)N[C@@H](CCCCN)C(=O)N[C@H](C(=O)N[C@H](C(=O)N[C@@H](Cc1c[nH]cn1)C(=O)N[C@H](C(=O)N[C@H](C(=O)N[C@@H](CCCCN)C(=O)N[C@@H](CCCCN)C(=O)NCC(=O)NCC(=O)N[C@@H](CSC1CC(=O)N(CCC(=O)NCCOCCOCCOCCOCCOCCOCCOCCOCCOCCOCCOCCOCCOCCOCCOCCOCCOCCOCCOCCOCCOCCOCCOCCOCCOCCOCCOCCOCCOCCOCCOCCOCCOCCOCCOCCOC)C1=O)C(=O)O)[C@@H](C)CC)[C@@H](C)CC)[C@@H](C)CC)[C@@H](C)CC)[C@@H](C)CC)[C@@H](C)CC (some centres unmarked) [PEP 318 PEG 36] (H-GGHIRRIIRKIIHIIKKGGC(X3)-OH; C-terminus assumed), which “MIC Ec” value [5] is on record?
**A.** 15.8 µM (≈ 63.8 µg/mL)

**Q.** What about the “MIC Ec F” value [2] of the same molecule?
**A.** 15.8 µM (≈ 63.8 µg/mL)

**Q.** And the “MIC Ab” value [6]?
**A.** 7.9 µM (≈ 31.9 µg/mL)

**Q.** And the IC50 [7]?
**A.** > 200 µM

**Q.** Which results are given for CC[C@H](C)[C@H](NC(=O)[C@H](Cc1c[nH]cn1)NC(=O)CNC(=O)CN)C(=O)N[C@@H](CCCNC(=N)N)C(=O)N[C@@H](CCCNC(=N)N)C(=O)N[C@H](C(=O)N[C@H](C(=O)N[C@@H](CCCNC(=N)N)C(=O)N[C@@H](CCCCN)C(=O)N[C@H](C(=O)N[C@H](C(=O)N[C@@H](Cc1c[nH]cn1)C(=O)N[C@H](C(=O)N[C@H](C(=O)N[C@@H](CCCCN)C(=O)N[C@@H](CCCCN)C(=O)NCC(=O)NCC(=O)N[C@@H](CSC1CC(=O)N(CCC(=O)NCCOCCOCCOCCOCCOCCOCCOCCOCCOCCOCCOCCOCCOCCOCCOCCOCCOCCOCCOCCOCCOCCOCCOCCOCCOCCOCCOCCOCCOCCOCCOCCOCCOCCOCCOCCOCCOCCOCCOCCOCCOCCOCCOCCOCCOCCOCCOCCOC)C1=O)C(=O)O)[C@@H](C)CC)[C@@H](C)CC)[C@@H](C)CC)[C@@H](C)CC)[C@@H](C)CC)[C@@H](C)CC (some centres unmarked) [PEP 318 PEG 48] (H-GGHIRRIIRKIIHIIKKGGC(X4)-OH; C-terminus assumed)?
**A.** MIC Ab [6]: 13.9 µM (≈ 63.5 µg/mL); IC50 [7]: > 200 µM

**Q.** Which IC50 [7] does the source give for CC/C(=C(\c1ccccc1)c1ccc(OCCN(C)C)cc1)c1ccccc1 [Tamoxifen, reference compound] here?
**A.** 42 µM

**Q.** Which “Linear (μM bp)” value [1] does the source give for “Cu-GGHC-Amik fr3: copper complex of GGHC-Amikacin, fraction 3 (also: copper complex, amikacin conjugate, site not given here)” here?
**A.** 0.04 μM bp

**Q.** What about the “Nicked (μM bp)” value [1] of the same molecule?
**A.** 6.46 μM bp

**Q.** What about the “Supercoiled (μM bp)” value [1] of the same molecule?
**A.** 3.50 μM bp

**Q.** For FVQWFSKFLGRILGGC [SEQ ID NO: 63], which activity against organisms [8] is on record?
**A.** active against Gram+ & Gram−, Virus, Parasites, Protozoan

**Q.** Which “MIC Kp” value [3] does the source give for “GGHGIRRIIRKIIHIIKK-NH2 (C-terminus assumed) [PEP 188, GGHGIRRIIRKIIHIIKK]” here?
**A.** 1.9 µM
